Several values for one entry are separate records, joined by “and”; a condition that tells them apart may be missing. Identical values can stand only once.
Tests used:
[1] = target: T1, hPAH-RD^1–120 (N-terminal regulatory domain) (Homo sapiens, UniProt P00439); test: Light scattering assay of hPAH-RD1–120 self-association
T1 construct: consisting solely of the N-terminal regulatory domain (amino acids 1–120); made in house; host or cells: E. coli TB1
T1 sequence (P00439 1-120): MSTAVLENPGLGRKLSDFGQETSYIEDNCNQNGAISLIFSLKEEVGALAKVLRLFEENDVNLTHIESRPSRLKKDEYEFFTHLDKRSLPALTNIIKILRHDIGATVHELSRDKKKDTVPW
Description: Self-assembly of the dimeric forms of hPAH-RD^1–120 was followed in real-time at 25 °C upon cleavage of MBP-FXa-hPAH-RD^1–120 with FXa (New England Biolabs) to release the MBP fusion partner. Assays (n = 3) were performed in the absence or presence of tested compounds as described in [17]. Briefly, FXa (at a final ratio 1:150 (w/w) relative to the fusion protein) was added to the reaction mixture containing the MBP-FXa-hPAH-RD^1–120 fusion protein (0.74 mg/mL), 20 mM Na-HEPES, 100 mM NaCl, pH 7.0 and tested 3HQ (100 μM). The increase in absorbance at 350 nm was followed for 180 min on a FLUOstar Omega (BMG Labtech) microplate reader. A shaking step was introduced before each measurement. Appropriate control assays were performed and included: (i) a positive control consisting of MBP-FXa-hPAH-RD^1–120 in the presence of FXa, 1% DMSO and in the absence of compounds; and (ii) a negative control consisting of MBP-FXa-hPAH-RD^1–120 in the absence of FXa and compounds. For all the assays, aliquots of the aggregation reaction were collected at the end of the reaction (180 min) and analyzed by SDS-PAGE to confirm the extent of MBP cleavage by FXa. In addition, the effect of tested compounds on FXa activity was monitored using the synthetic FXa substrate Boc–Ile–Glu-Gly–Arg–AMC (t-(Butyloxycarbonyl)-isoleucylglutamylglycylarginyl-7-amido-4-methylcoumarin; from Bachem). Assays (n = 3) were performed in a 96-well plate, in a final volume of 200 μL containing 20 mM Na-HEPES, 100 mM NaCl, pH 7.0, 5 μg/mL of FXa, 50 μM of Boc–Ile-Glu–Gly–Arg–AMC and 100 μM of 3HQ derivatives. Fluorescence was measured in real-time (λexc 360 nm and λem 460 nm) during 30 min, at 25 °C. Controls were performed using substrate alone with 1% DMSO (negative control) and FXa with no compounds and 1% DMSO (positive control).

[2] = target: T2, human phenylalanine hydroxylase (hPAH) (Homo sapiens, UniProt P00439); design: method as in PMID 12379147, PMID 15060071; conditions: ref [24],[25]; read-out: KD of L-Phe, previously reported SPR values; cited from earlier work
T2 construct: Recombinant full-length wild-type (WT) hPAH was expressed in E. coli Top10 cells in fusion with a hexa-histidyl peptide; made in house; host or cells: E. coli Top10
T2 sequence (P00439 1-452): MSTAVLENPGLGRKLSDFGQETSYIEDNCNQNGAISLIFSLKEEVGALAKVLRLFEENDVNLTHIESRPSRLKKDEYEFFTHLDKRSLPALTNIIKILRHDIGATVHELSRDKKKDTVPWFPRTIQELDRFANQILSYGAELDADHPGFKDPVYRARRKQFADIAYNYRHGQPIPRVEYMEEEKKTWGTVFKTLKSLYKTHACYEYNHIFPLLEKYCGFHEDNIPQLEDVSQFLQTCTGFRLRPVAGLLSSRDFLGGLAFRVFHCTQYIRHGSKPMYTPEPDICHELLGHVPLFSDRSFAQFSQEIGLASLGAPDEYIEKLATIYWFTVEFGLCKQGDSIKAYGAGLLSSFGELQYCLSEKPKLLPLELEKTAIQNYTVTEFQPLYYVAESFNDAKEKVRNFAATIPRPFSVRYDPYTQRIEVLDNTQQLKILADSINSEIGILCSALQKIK

HEK-293T cells = test: Propidium iodide exclusion assay (membrane integrity); assay type: cell-based; conditions: 100 μM, 24 h; negative control 1.0 ± 0.1
Description: Cytotoxicity of selected 3HQs was assessed in HEK-293T cells using the Alamar Blue assay as a general cell viability endpoint method that monitors the cellular metabolic state, and the propidium iodide (PI) exclusion assay was used to evaluate membrane integrity essentially as described. The 3HQs were tested at a final concentration of 50 and 100 μM (two independent assays; five replicates each). Control assays were performed using 1% DMSO (negative control), or SDS at 1 mg/mL as a positive control of cell death in the PI assay. […] The culture medium was replaced by fresh medium (supplemented as above) containing the different 3HQs to be analyzed. After 24 h incubation, the culture medium was replaced by […] PI (Sigma-Aldrich) in fresh medium (stock solution 1.5 mM in DMSO) and fluorescence was measured (λexc 485 nm, λem 590 nm) in a FLUOstar Omega microplate reader. […] The cells were further incubated for 3 h and fluorescence was measured (λexc 530 nm, λem 590 nm) in a FLUOstar Omega microplate reader (BMG Labtech). The relative PI uptake and cell viability (%) were calculated using Equations (3) and (4), respectively. Relative PI uptake = Fluorescence intensitysample/Fluorescence intensitynegative control(3) Relative cell viability (%) = Fluorescence intensitysample/Fluorescence intensitycontrol × 100(4)

Row | effect on hPAH-RD^1–120 aggregation ([1]; 1 mM L-Phe) | SMILES | effect on hPAH-RD^1–120 aggregation ([1]; 100 μM, 180 min, 25 °C) | Kd [2] | relative PI uptake (HEK-293T cells)
1 | completely blocked it | N[C@@H](Cc1ccccc1)C(=O)O [L-Phe, L-phenylalanine, reference compound] | only slightly prevented hPAH-RD^1–120 aggregation | 97 µM and 136 µM | –
2 | – | COC(=O)CC[C@H](NC(=O)c1c(O)c(=O)[nH]c2ccc(OC(F)(F)F)cc12)C(=O)OC [Compound 9] | – | – | 1.0 ± 0.0
3 | – | COC(=O)CNC(=O)c1c(O)c(=O)[nH]c2ccc(OC(F)(F)F)cc12 [Compound 11] | no direct evidence of a direct binding to hPAH-RD^1–120 was obtained | – | 1.0 ± 0.1
